Consider 13 molecules from patent publication US20210169911A1, “PURINE AND PYRIMIDINE NUCLEOTIDES AS ECTO-5'-NUCLEOTIDASE INHIBITORS” (The United States of America,as represented by the …, priority 2018, published 2021).

Counter-ions that a name gives are not always drawn. Like-named read-outs stand apart in the source and are kept apart here.

Data set [1] has as its target T1, recombinant soluble rat CD73 (Rattus norvegicus, UniProt P21588).
T1 sequence (P21588 29-551 limits assumed): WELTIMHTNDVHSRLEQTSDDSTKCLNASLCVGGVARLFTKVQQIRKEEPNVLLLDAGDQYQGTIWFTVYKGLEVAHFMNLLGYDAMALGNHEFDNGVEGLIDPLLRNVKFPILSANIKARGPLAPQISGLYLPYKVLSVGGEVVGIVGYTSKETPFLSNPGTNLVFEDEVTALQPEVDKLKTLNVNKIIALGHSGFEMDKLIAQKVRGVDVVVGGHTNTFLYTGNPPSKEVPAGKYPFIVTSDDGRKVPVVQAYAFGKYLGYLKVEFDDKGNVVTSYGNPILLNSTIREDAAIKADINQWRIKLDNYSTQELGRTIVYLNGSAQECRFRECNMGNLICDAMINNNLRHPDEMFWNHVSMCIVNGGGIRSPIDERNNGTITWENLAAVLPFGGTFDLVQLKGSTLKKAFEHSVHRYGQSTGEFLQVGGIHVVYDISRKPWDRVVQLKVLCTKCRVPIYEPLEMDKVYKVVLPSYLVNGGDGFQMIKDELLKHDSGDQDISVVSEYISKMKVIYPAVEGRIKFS
As to the kind of experiment: Radiometric rat ecto-5′-nucleotidase (CD73) assay with [3H]AMP. The settings on record: for % inhibition at indicated concentration, rat CD73: initial screening concentration 1 μM.
Procedure: After the enzymatic reaction, the substrate was separated from its product [2,8-^3H]adenosine by precipitation with lanthanum chloride followed by filtration through glass fiber filters (34). […] Ki values were calculated from the obtained IC50 values using the Cheng-Prusoff equation (6,7).
The assay was performed as previously described (41) using recombinant rat CD73 expressed in Sf9 insect cells (33). […] The mixture was incubated for 25 min at 37° C. The reaction was stopped by adding 500 μL of ice-cooled precipitation buffer containing 100 mM aqueous lanthanum chloride and 100 mM aqueous sodium acetate solution (pH 4.0). After 30 min, the precipitation was filtered through GF/B glass fiber filters (M-48, Brandel, Gaithersburg, Md., USA). After washing three times, 4 mL of the scintillation cocktail ULTIMA Gold XR was added and then quantified by scintillation counting (TRICARB 2900 TR, Packard/PerkinElmer). Three separate inhibition assays were performed in triplicate, concentration-response curves were fitted, and Ki values were calculated.
The assay was performed essentially as previously described.^D Stock solutions (10 mM) of the compounds were prepared in demineralized water and further dilutions were performed in assay reaction buffer (25 mM Tris, 140 mM sodium chloride, 25 mM sodium dihydrogen phosphate, pH 7.4). 10 μL of the inhibitor solution were added to 70 μL of assay reaction buffer. […] The enzymatic reaction was performed for 25 min at 37° C. in a shaking water bath. […] After the precipitation was completed (after at least 30 min on ice), the mixture was separated by filtration through GF/B glass fiber filters using a cell harvester (M-48, Brandel, Gaitherburg, Md., USA). After washing each reaction vial three times with 400 μl of cold (4° C.) demineralized water, 5 ml of the scintillation cocktail (ULTIMA Gold XR, PerkinElmer, MA, USA) was added and radioactivity was measured by scintillation counting (TRICARB 2900 TR, Packard/PerkinElmer; counting efficacy: 49-52%). Two controls were included and measured as duplicates. One reaction was performed without the inhibitor resulting in 100% enzyme activity (positive control) and one was incubated without the inhibitor and the enzyme and served as background control. The resulting data were subtracted from the background and were normalized with to the positive control. The results were plotted, and concentration-inhibition curves were fitted with GraphPad Prism 5 (GraphPad Software, La Jolla, USA).
After 30 min, the precipitation was filtered through GF/B glass fiber filters (M-48, Brandel, Gaithersburg, Md., USA). After washing three times, 4 mL of the scintillation cocktail ULTIMA Gold XR was added and then quantified by scintillation counting (TRICARB 2900 TR, Packard/PerkinElmer). Three separate inhibition assays were performed in triplicate, concentration-response curves were fitted, and K, values were calculated.

The nature of data set [2]: Stability in aqueous solution. The data set is classed as physicochemical. The settings on record: decomposes to UOPCP (4a). The method, then: Cytidine derivatives varying at the 2′-position (7a and 7b), as well as at the 5-position (7c-e), were prepared as depicted in Scheme 2. […] The required nucleosides were prepared by either reacting cytidine (6a), 2′-deoxycytidine (6b), 5-fluorocytidine (6d) or 5-methylcytidine (6e) with respective alkoxyamino derivatives in pyridine^8 followed by phosphonylation reaction to afford compounds 9a-f, or by reacting cytidine (6a) with benzyloxyamine, followed by nucleophilic substitution at the 3-position and subsequent 5′-O-phosphonylation of the nucleosides to afford compounds 9h and 9i (Scheme 2). Furthermore, 3-deazauridine-5′-α,β-methylene-diphosphate (10), (S)-methanocarba-5′-α,β-methylene-diphosphate (11) and the ethyl ester of 2-thio-UDP (12) (7) were prepared to extend the exploration of SARs of the nucleotide analogs as CD73 inhibitors. All phosphonate-substituted nucleotides were purified to homogeneity by ion exchange chromatography followed by reverse phase C18 HPLC.

For data set [3], the system named is recombinant soluble human CD73. As to the kind of experiment: Radiometric CD73 inhibition assay, recombinant soluble human CD73. The data set is classed as biochemical. The settings on record: human vs rat CD73 Ki, Table 5. As to the method:
(§1) The cDNA for the soluble human CD73 (Genbank accession no. NM_002526) was obtained from Prof. Dr. Norbert Sträter (University of Leipzig, Germany) (3). […] Sf9 insect cells were grown in Insect-[…] media (#: BE12-[…], Lonza, Switzerland) with 10 mg/l gentamicin and split at a ratio of 1:3 every fourth day. For transfection, cells were seeded into cell culture flasks (25 cm^2) at 60-70% confluence. 100 μl of cell medium and 1 μl of the vector DNA (1000 ng/μ1) were mixed with 2.5 μl of baculovirus genomic ProEasyTM vector DNA (AB vector, CA, USA) and combined with premixed 100 μl of cell medium and 8 μl of CellfectinTM II Reagent (Thermo Fisher Scientific, MA, USA). […] The cells were incubated for 30 min at rt, and for further 4 days at 27° C. Cells from the transfection procedure were detached from the bottom of the flasks and centrifuged for 5 min at 2000 g. 1.5 ml of the supernatant (viral stock) was added to 75 cm^2 cell culture flasks containing Sf9 cells (60-70% confluence), and the cells were incubated for four days at 27° C. Then 1.5 ml of the supernatant were taken and added to uninfected Sf9 cells in a 75 cm^2 flask. This was repeated five more times, using more cells and larger flasks after the third round of infections (150 cm^2 to which 3.0 ml of supernatant were added). The stock P8 was finally used for infection of the cells. For protein expression, 3 ml of the virus solution were used to infect 150 ml of cell media containing 2×10^6 cells/ml in a 500 ml Erlenmeyer flask, and they were incubated for 4 days at 27° C. with shaking (150 rpm). Then, cell suspensions were transferred to 50 ml falcon tubes and centrifuged at 15 min at 5000 g at 4° C. The supernatants were subjected to ultrafiltration using Amicon® Ultra-15, 10 kDa cut-off (Merck Millipore, MA, USA) at 5000 g for 15-30 min at 4° C. The concentrated protein was purified with HisPurTM Ni^2+-NTA spin columns (#: 88226, Thermo Fisher Scientific, MA, USA). The elution of the columns was performed as recommended in the instruction manual with adjusting the incubation time for protein binding to 1 h at 4° C. with an end-over-end mixer and an additional incubation step of 5 min with the elution buffer before eluting. Eluates were pooled and dialyzed (Membra-Cer, 14 kDa cut-off, 250 mm×44 mm×0.02 mm; Carl Roth, Germany) at 4° C. in 25 mM Tris, pH 7.4, with a volume adjusted to 40 times the volume of the elution fraction. […] The enzyme was aliquoted and stored at -80° C. until use.

Data set [4] has as its target T2, recombinant soluble human CD73 (Homo sapiens, UniProt P21589).
T2 construct: 6xHis (C); secretion signal peptide of vector pACGP67B (N); made in house; host or cells: Sf9 insect cells (baculovirus)
T2 sequence (P21589 28-549): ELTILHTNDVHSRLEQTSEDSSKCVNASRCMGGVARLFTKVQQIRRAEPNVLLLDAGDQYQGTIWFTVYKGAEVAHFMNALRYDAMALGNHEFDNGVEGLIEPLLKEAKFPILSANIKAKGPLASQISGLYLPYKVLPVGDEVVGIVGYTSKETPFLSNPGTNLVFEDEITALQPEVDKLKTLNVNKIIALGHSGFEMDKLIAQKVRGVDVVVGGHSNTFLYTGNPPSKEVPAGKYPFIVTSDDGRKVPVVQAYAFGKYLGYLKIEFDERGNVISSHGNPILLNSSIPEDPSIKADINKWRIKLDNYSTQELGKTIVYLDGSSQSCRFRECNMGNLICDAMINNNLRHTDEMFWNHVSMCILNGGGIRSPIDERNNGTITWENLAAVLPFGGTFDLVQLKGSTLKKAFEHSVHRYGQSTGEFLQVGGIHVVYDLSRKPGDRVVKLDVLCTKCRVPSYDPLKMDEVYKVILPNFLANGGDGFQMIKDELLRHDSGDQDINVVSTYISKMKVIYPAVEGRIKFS
The data set is described as above. The data set is classed as biochemical. The settings on record: Table 6; for Ki: human soluble CD73, read-out: Ki at hCD73. The method, then:
as §1

[5] abbreviates: read-out: Ki ± SEM (nM), rat CD73, Table 3, recombinant soluble rat CD73, 5 μM [3H]AMP.

With `Nc1ccnc2c1ncn2[C@@H]1O[C@H](COP(=O)(O)CP(=O)(O)O)[C@@H](O)[C@H]1O` [Compound 2e, 1-Deazaadenosine-5′-O-[(phosphonomethyl)phosphonic acid]], the % inhibition (commonly the drop in the measured response relative to a control, in per cent) at indicated concentration, rat CD73 in data set [1] (Table 3) was 36%. Moreover, the inhibitory constant (Ki) (in general, a dissociation constant, usually derived from enzyme kinetics or from competition with a known ligand) in data set [1] (setting [5]) was > 1000 nM.
For `Nc1nccc2c1ncn2[C@@H]1O[C@H](COP(=O)(O)CP(=O)(O)O)[C@@H](O)[C@H]1O` [Compound 2f, 3-Deazaadenosine-5′-O-[(phosphonomethyl)phosphonic acid]], the “% inhibition at indicated concentration, rat CD73” value in data set [1] (Table 3) stood at 36%. In data set [1] (setting [5]), the Ki was > 1000 nM.
As for `Nc1ncnc2c1ccn2[C@@H]1O[C@H](COP(=O)(O)CP(=O)(O)O)[C@@H](O)[C@H]1O` [Compound 2g, 7-Deazaadenosine-5′-O-[(phosphonomethyl)phosphonic acid]], the Ki in data set [1] (setting [5]) is 88.6 ± 4 nM.
As for `O=C(Nc1ccn([C@@H]2O[C@H](COP(=O)(O)CP(=O)(O)O)C(O)C2O)c(=O)n1)c1ccccc1` (stereo partly shown) [Compound 7f, 4-Benzoylcytidine-5′-O-[(phosphonomethyl)phosphonic acid]], the “decomposition in aqueous solution” value in data set [2] is reported as “rapid decomposition”; in data set [2] (listed as 71) it was “decomposition in aqueous solution”.
With `O=c1[nH]c(=NOCc2ccccc2)c(F)cn1C1OC(COP(=O)(O)CP(=O)(O)O)C(O)C1O` (stereo not shown) [Compound 9g, N^4-[O-(4-Benzyloxy)]-5-fluoro-cytidine-5′-O-[(phosphonomethyl)phosphonic acid]], in data set [3], the “potency at human CD73 as compared to the rat enzyme” value is on record as 5 fold.
For `CCn1c(=O)n([C@@H]2O[C@H](COP(=O)(O)CP(=O)(O)O)[C@@H](O)[C@H]2O)cc/c1=N/OCc1ccccc1` [Compound 9i, N^4-[O-(4-Benzyloxy)]-3-ethyl-cytidine-5′-O-[(phosphonomethyl)phosphonic acid]], in data set [1], the inhibitory constant (Ki) amounted to 262 ± 46 nM.
With `Cn1c(=O)n([C@@H]2O[C@H](COP(=O)(O)CP(=O)(O)O)[C@@H](O)[C@H]2O)cc/c1=N/OCc1cccc(Cl)c1` [Compound 106, N^4-(3-Chlorobenzyloxy)-3-methylcytidine-5′-α,β-methylenediphosphate triethylammonium salt], in data set [4], the Ki turned out to be 0.00161 ± 9e-05 µM.
Same read-out and setting: next, `Cn1c(=O)n([C@@H]2O[C@H](COP(=O)(O)CP(=O)(O)O)[C@@H](O)[C@H]2O)cc/c1=N/OCc1cccc(C(F)(F)F)c1` [Compound 107, N^4-((3-Trifluoromethyl)benzyloxy)-3-methyleytidine-5′-α,β-methylenediphosphate triethylammonium salt]: 0.00144 ± 9e-05 µM; `C#Cc1ccc(CO/N=c2/ccn([C@@H]3O[C@H](COP(=O)(O)CP(=O)(O)O)[C@@H](O)[C@H]3O)c(=O)n2C)cc1` [Compound 114, N^4-(4-Ethynylbenzyloxy)-3-methyleytidine-5′-α,β-methylenediphosphate triethylammonium salt]: 0.000664 ± 8.9e-05 µM.
Consider `Cn1c(=O)n([C@@H]2O[C@H](COP(=O)(O)CP(=O)(O)O)[C@@H](O)[C@H]2O)cc/c1=N/OCc1ccc(-c2cn(CCF)nn2)cc1` [Compound 120, N^4-(4-(1-(2-Fluoroethyl)-1H-1,2,3-triazol-4-yl)benzyloxy)-3-methylcytidine-5′-α,β-methylenediphosphate triethylammonium salt], for which the Ki in data set [4] was determined as 0.000627 ± 9.9e-05 µM.
Take `CCN(CC)CC.CCN(CC)CC.O=c1ccn([C@H]2[C@H](O)[C@H](O)C3(COP(=O)(O)CP(=O)(O)O)C[C@H]23)c(=O)[nH]1` (stereo partly drawn) [Compound 121, (((((2R,3S,4R,5S)-4-(2,4-Dioxo-3,4-dihydropyrimidin-1(2H)-yl)-2,3-dihydroxy-1λ^5-bicyclo[3.1.0]hexan-1-yl)methoxy)(hydroxy)phosphoryl)methyl)phosphonic Acid Triethylammonium Salt]: in data set [4] (at 50 μM), the “inhibition of hCD73” value was found to be 35% inhibition.
For the molecule `Nc1ncnc2c1ncn2[C@@H]1O[C@H](COP(=O)(O)CP(=O)(O)O)[C@@H](O)[C@H]1O` [I, reference compound], the Ki in data set [1] (setting [5]) was found to be 167 ± 53 nM.
In the case of “(((((2R,3S,4R,5S)-4-((Z)-4-(((4-Chlorobenzyl)oxy)imino)-3-methyl-2-oxo-3,4-dihydropyrimidin-1(2H)-yl)-2,3-dihydroxy-1V-bicyclo[3.1.0]hexan-1-yl)methoxy)(hydroxy)phosphoryl)methyl)phosphonic Acid Triethylammonium Salt [Compound 122]”, the Ki in data set [4] stood at 0.0592 ± 0.00558 µM.
